The nature of series [1]: Terminal half life in healthy human following administration of 2 hrs and 5 day continuous iv infusion. The format is ADME, organism-based. Particulars: in vivo, read-out: beta t1/2.
The species named for series [2] is Oryctolagus cuniculus. Nature of the series: Antithrombotic activity in rabbit model of arteriovenous-shunt thrombosis. It is filed as functional.
A further series addresses Trypsin (Homo sapiens, UniProt P07477+P07478+P35030). Put plainly: Inhibition of trypsin (unknown origin) using Chromozyme-TRY substrate incubated for 3 mins by spectrophotometry. It is filed as protein assay.
The species named for series [3] is Oryctolagus cuniculus. Nature of the series: Antithrombotic activity in rabbit model of venous thrombosis. It is filed as functional.
The species named for series [4] is Oryctolagus cuniculus. Nature of the series: Antithrombotic activity in rabbit model of electrolytic-mediated carotid arterial thrombosis. The format is functional.
For another series, the target named is Tryptase (Homo sapiens, UniProt Q9BZJ3+Q15661+Q9NRR2). Put plainly: Inhibition of human lung tryptase using Z-glypro-arg-AMC incubated for 3 mins by spectrophotometry. The format is protein assay.
The target in series [5] is T1, Coagulation factor XI (Homo sapiens, UniProt P03951). Nature of the series: Inhibition of human factor 11a incubated for 60 mins by Cheng-Prusoff equation analysis.
T1 sequence (P03951 19-387 limits assumed): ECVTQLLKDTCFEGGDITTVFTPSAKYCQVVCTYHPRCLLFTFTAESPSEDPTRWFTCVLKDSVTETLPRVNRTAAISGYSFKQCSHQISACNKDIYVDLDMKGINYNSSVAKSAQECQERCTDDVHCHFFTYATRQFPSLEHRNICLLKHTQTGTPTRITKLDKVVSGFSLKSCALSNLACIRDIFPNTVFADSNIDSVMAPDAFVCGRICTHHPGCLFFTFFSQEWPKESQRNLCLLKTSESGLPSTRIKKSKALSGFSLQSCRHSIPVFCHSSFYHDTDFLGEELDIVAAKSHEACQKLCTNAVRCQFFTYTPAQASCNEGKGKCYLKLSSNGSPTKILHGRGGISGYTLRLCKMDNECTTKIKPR
T1 sequence (P03951 388-625 limits assumed): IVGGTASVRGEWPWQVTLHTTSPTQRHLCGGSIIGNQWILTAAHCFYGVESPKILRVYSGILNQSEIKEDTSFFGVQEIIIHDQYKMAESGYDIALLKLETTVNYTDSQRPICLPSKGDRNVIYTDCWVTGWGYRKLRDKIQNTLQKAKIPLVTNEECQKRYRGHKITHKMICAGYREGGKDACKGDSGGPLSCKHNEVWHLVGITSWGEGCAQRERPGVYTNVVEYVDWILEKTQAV
The target of series [6] is T1, Coagulation factor XI. Put plainly: Inhibition of human factor 11a assessed as reduction in para-nitroanilide releasee using pyroGlu-Pro-Arg-pNA.HCl substrate by chromogenic assay.

Regarding `CN1CCN(c2cccc3c2CCN(C(=O)/C=C/c2c(-n4cnnn4)ccc(Cl)c2F)[C@@H]3C(=O)Nc2ccc(C(=O)O)cc2)C(=O)C1` [BMS-962212], the half-life in series [1] was 360 to 540 min.

Regarding `CC(C)(C)NC(=O)N1CCN(C(=O)N2C(=O)[C@H](CCCN=C(N)N)[C@H]2C(=O)O)CC1`, the median effective dose (ED50) – broadly, the dose at which the effect has come halfway, by size or by number of responders – in the series listed under Oryctolagus cuniculus [2] came to 0.4 mg/kg/h; in the series listed under Oryctolagus cuniculus [3] it was 0.7 mg/kg/h; in the series filed under Oryctolagus cuniculus [4], 1.5 mg/kg/h. Also, the IC50 (as a rule, the point on the concentration scale where inhibition reaches its midpoint) against Trypsin is on record as 50 nM; at Tryptase it was 5 nM.

In the case of `COC(=O)Nc1ccc2c(c1)NC(=O)CCCC[C@H](NC(=O)[C@H]1CC[C@H](CN)CC1)c1nc-2c[nH]1`, the Ki (usually a measure of affinity in units of concentration, obtained from inhibition or displacement) at Coagulation factor XI [5] is 0.3 nM.

For the molecule `CNC(=O)[C@H](Cc1ccccc1)NC(=O)c1ccc2[nH]c(=O)cc(O)c2c1`, the Kd (usually a measure of binding affinity in units of concentration) at Coagulation factor XI [6] was 1.4 mM.

(Values after ChEMBL document CHEMBL4196099, “Factor XIa Inhibitors as New Anticoagulants” (J Med Chem, 2018).)
